Data from patent publication US11883537B2, “Sustained release solid dosage forms for modulating the colonic microbiome” (Axial Therapeutics, Inc., priority 2019, dated 2024).
Where two headings read alike, the source gives them in different places.

Tests used:
[1] = target: α-synuclein (Homo sapiens, UniProt P37840); test: ThT assay, aggregation of α-synuclein; type: biochemical
From the text: (§1) A compound that inhibits, or that may inhibit, amyloidogenesis is combined with a bacterial amyloid initiator (e.g., E. coli CsgA), or a host-derived amyloidogenic protein (e.g., α-synuclein) and an amyloid precursor in the presence of Thioflavin T (ThT). Separately, as a control, bacterial amyloid initiator, amyloid precursor, and Thioflavin T are combined in the absence of the suspected amyloidogenesis inhibitor. Thioflavin T fluorescence is monitored over time. […] The Tht assay was used with a cell-free assay to assess the effects of compounds on aggregation of α-synuclein of E. coli CsgA, and to assess the effects of compounds on aggregation of α-synuclein seeded by E. coli CsgA.

[2] = target: E. coli CsgA (Escherichia coli, UniProt P28307); test: ThT assay, aggregation of E. coli CsgA; type: biochemical; details: ThT fluorescence, cell-free
From the text: A compound that inhibits, or that may inhibit, amyloidogenesis is combined with a bacterial amyloid initiator (e.g., E. coli CsgA), or a host-derived amyloidogenic protein (e.g., α-synuclein) and an amyloid precursor in the presence of Thioflavin T (ThT). Separately, as a control, bacterial amyloid initiator, amyloid precursor, and Thioflavin T are combined in the absence of the suspected amyloidogenesis inhibitor. Thioflavin T fluorescence is monitored over time. A reduction in the rate of increase in Thioflavin T fluorescence, and/or a reduction in the maximum level of Thioflavin T fluorescence in the sample containing the suspected inhibitor, relative to the control sample, confirms that the suspected amyloidogenesis inhibitor is in fact functioning to inhibit amyloid formation. The Tht assay was used with a cell-free assay to assess the effects of compounds on aggregation of α-synuclein of E. coli CsgA, and to assess the effects of compounds on aggregation of α-synuclein seeded by E. coli CsgA. For a detailed description of the ThT assay, see, e.g., International Publication No. WO/2018/213204, which is incorporated by reference herein in its entirety.

[3] = target: α-synuclein seeded by E. coli CsgA (Homo sapiens, UniProt P37840); type: biochemical; details: ThT fluorescence, cell-free
From the text: as §1

[4] = test system: αSyn amyloid formation; details: mice; cited from earlier work
[5] = test system: bacterial curli levels in the gastrointestinal tract; test: Murine models, curli content in feces; type: in vivo; details: SPF mice or germ free mice mono-colonized with E. coli MC4100; oral
Procedure: The following two mouse models were used to evaluate the in vivo activity of test articles (i.e., sustained release solid dosage forms described herein).
Model 1 was performed in selected strains of specific pathogen free (SPF) mice (e.g. Swiss Webster) that carry curli producing bacteria as part of their native gastrointestinal microbiota.
Model 2 was performed in germ free mice that have no native microbiota. In these mice administration, by oral gavage, of a single strain of curli-producing bacteria (e.g. E. coli MC4100) led to stable bacterial colonization of their gastrointestinal tract. […]
To evaluate the ability of test articles to modify bacterial curli levels in the gastrointestinal tract mice, from either Model 1 or 2, were treated with compound typically administered once daily via oral gavage. […] Where appropriate, test articles were evaluated at multiple dose levels, or at greater or lower dosing frequency. […]
To enable the quantitative assessment of test article impact on gastrointestinal curli levels, fecal samples were collected from these treated mice. […]
Assessment of curli content in feces was achieved through one of four approaches: • 1. Quantitative measurement of messenger RNA (mRNA) levels for csgA using a specific qRT-PCR approach. • 2. Quantitative measurement of curli protein levels using fluorescent dyes that bind to amyloid proteins (e.g. ThT, Congo Red, FSB). • 3. […]

E. coli CsgA, sequence (P28307 21-151): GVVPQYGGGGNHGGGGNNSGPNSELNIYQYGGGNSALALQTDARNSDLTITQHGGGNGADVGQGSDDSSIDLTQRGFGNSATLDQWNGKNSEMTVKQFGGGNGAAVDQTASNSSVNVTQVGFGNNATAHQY

SMILES: C=CCc1ccc(OC)c(OC)c1 [4-allyl-1,2-dimethoxy-benzene, 4-allyl-1,2-dimethoxy-benzene]
- Inhibition of Aggregation αSyn [1]: − ((−) is between −10% to 10% inhibition)
- Inhibition of Aggregation CsgA [2]: − − ((− −) is less than −10% inhibition)
- Inhibition of Aggregation CsgA-seeded αSyn [3]: ++ ((++) is between 30% to 60% inhibition)

SMILES: Brc1cccc(-c2cc(-c3ccc4c(c3)OCO4)n[nH]2)c1 [Anle 138b]
- Inhibition of Aggregation CsgA [2]: − ((−) is between −10% to 10% inhibition)

SMILES: O=C(O[C@@H]1Cc2c(O)cc(O)cc2O[C@@H]1c1cc(O)c(O)c(O)c1)c1cc(O)c(O)c(O)c1 [EGCG, epigallocatechin gallate]
- Inhibition of Aggregation αSyn ([1]; ThT fluorescence, cell-free): +++ ((+++) is greater than 60% inhibition)
- Inhibition of Aggregation CsgA [2]: ++ ((++) is between 30% to 60% inhibition)
- motor scores [4]: improved motor scores
- αSyn amyloid formation in vivo [4]: inhibits or reduces αSyn amyloid formation in mice
- in vivo activity on fecal curli content [5]: reduce fecal levels of csgA mRNA, CsgA protein, and curli protein
- Inhibition of Aggregation CsgA-seeded αSyn [3]: +++ ((+++) is greater than 60% inhibition)

SMILES: CC(Cc1ccc(O)c(O)c1)C(C)Cc1ccc(O)c(O)c1 (centres unmarked) [NDGA]
- Inhibition of Aggregation αSyn ([1]; ThT fluorescence, cell-free): ++ ((++) is between 30% to 60% inhibition)
- Inhibition of Aggregation CsgA [2]: + ((+) is between 10% to 30% inhibition)
- Inhibition of Aggregation CsgA-seeded αSyn [3]: ++ ((++) is between 30% to 60% inhibition)

SMILES: O=c1cc(-c2ccc(O)cc2)oc2cc(O)cc(O)c12 [apigenin]
- Inhibition of Aggregation αSyn ([1]; ThT fluorescence, cell-free): ++ ((++) is between 30% to 60% inhibition)

SMILES: Cc1ccc(C(C)C)cc1O [carvacrol]
- Inhibition of Aggregation αSyn ([1]; ThT fluorescence, cell-free): − ((−) is between −10% to 10% inhibition)
- Inhibition of Aggregation CsgA [2]: − − ((− −) is less than −10% inhibition)
- Inhibition of Aggregation CsgA-seeded αSyn [3]: − ((−) is between −10% to 10% inhibition)

SMILES: COc1cc(/C=C/C(=O)/C=C(O)/C=C/c2ccc(O)c(OC)c2)ccc1O [curcumin]
- Inhibition of Aggregation αSyn ([1]; ThT fluorescence, cell-free): +++ ((+++) is greater than 60% inhibition)
- Inhibition of Aggregation CsgA-seeded αSyn [3]: +++ ((+++) is greater than 60% inhibition)

SMILES: C=CCc1ccc(O)c(OC)c1 [eugenol]
- Inhibition of Aggregation αSyn ([1]; ThT fluorescence, cell-free): − ((−) is between −10% to 10% inhibition)
- Inhibition of Aggregation CsgA [2]: − ((−) is between −10% to 10% inhibition)
- Inhibition of Aggregation CsgA-seeded αSyn [3]: ++ ((++) is between 30% to 60% inhibition)

SMILES: O=C(O)c1cc(O)c(O)c(O)c1 [gallic acid]
- Inhibition of Aggregation αSyn ([1]; ThT fluorescence, cell-free): +++ ((+++) is greater than 60% inhibition)
- Inhibition of Aggregation CsgA [2]: +++ ((+++) is greater than 60% inhibition)
- Inhibition of Aggregation CsgA-seeded αSyn [3]: +++ ((+++) is greater than 60% inhibition)

SMILES: O=c1c(-c2ccc(O)cc2)coc2cc(O)cc(O)c12 [genistein]
- Inhibition of Aggregation αSyn ([1]; ThT fluorescence, cell-free): ++ ((++) is between 30% to 60% inhibition)

SMILES: COc1ccccc1O [guaiacol]
- Inhibition of Aggregation αSyn ([1]; ThT fluorescence, cell-free): − ((−) is between −10% to 10% inhibition)
- Inhibition of Aggregation CsgA [2]: − ((−) is between −10% to 10% inhibition)
- Inhibition of Aggregation CsgA-seeded αSyn [3]: ++ ((++) is between 30% to 60% inhibition)

SMILES: C/C=C/c1ccc(O)c(OC)c1 [isoeugenol]
- Inhibition of Aggregation αSyn ([1]; ThT fluorescence, cell-free): − ((−) is between −10% to 10% inhibition)
- Inhibition of Aggregation CsgA [2]: − ((−) is between −10% to 10% inhibition)
- Inhibition of Aggregation CsgA-seeded αSyn [3]: ++ ((++) is between 30% to 60% inhibition)

SMILES: CCCCCCCCCCCCOC(=O)c1cc(O)c(O)c(O)c1 [lauryl gallate]
- Inhibition of Aggregation αSyn ([1]; ThT fluorescence, cell-free): ++ ((++) is between 30% to 60% inhibition)
- Inhibition of Aggregation CsgA [2]: − ((−) is between −10% to 10% inhibition)
- Inhibition of Aggregation CsgA-seeded αSyn [3]: + ((+) is between 10% to 30% inhibition)

SMILES: COc1cc(O)ccc1O [methoxy- hydroquinone, methoxy-hydroquinone]
- Inhibition of Aggregation αSyn ([1]; ThT fluorescence, cell-free): +++ ((+++) is greater than 60% inhibition)
- Inhibition of Aggregation CsgA [2]: ++ ((++) is between 30% to 60% inhibition)
- Inhibition of Aggregation CsgA-seeded αSyn [3]: +++ ((+++) is greater than 60% inhibition)

SMILES: O=c1c(O)c(-c2ccc(O)cc2O)oc2cc(O)cc(O)c12 [morin]
- Inhibition of Aggregation αSyn ([1]; ThT fluorescence, cell-free): +++ ((+++) is greater than 60% inhibition)
- Inhibition of Aggregation CsgA [2]: +++ ((+++) is greater than 60% inhibition)
- Inhibition of Aggregation CsgA-seeded αSyn [3]: +++ ((+++) is greater than 60% inhibition)

SMILES: O=C(CCc1ccc(O)cc1)c1c(O)cc(O)cc1O [phloretin]
- Inhibition of Aggregation αSyn ([1]; ThT fluorescence, cell-free): ++ ((++) is between 30% to 60% inhibition)
- Inhibition of Aggregation CsgA [2]: + ((+) is between 10% to 30% inhibition)
- Inhibition of Aggregation CsgA-seeded αSyn [3]: + ((+) is between 10% to 30% inhibition)

SMILES: O=c1c(O)c(-c2ccc(O)c(O)c2)oc2cc(O)cc(O)c12 [quercetin]
- Inhibition of Aggregation αSyn ([1]; ThT fluorescence, cell-free): +++ ((+++) is greater than 60% inhibition)
- Inhibition of Aggregation CsgA [2]: ++ ((++) is between 30% to 60% inhibition)

SMILES: Oc1ccc(/C=C/c2cc(O)cc(O)c2)cc1 [resveratrol]
- Inhibition of Aggregation αSyn ([1]; ThT fluorescence, cell-free): +++ ((+++) is greater than 60% inhibition)
- Inhibition of Aggregation CsgA [2]: +++ ((+++) is greater than 60% inhibition)

SMILES: O=C(/C=C/c1ccc(O)c(O)c1)O[C@H](Cc1ccc(O)c(O)c1)C(=O)O [rosmarinic acid]
- Inhibition of Aggregation αSyn ([1]; ThT fluorescence, cell-free): +++ ((+++) is greater than 60% inhibition)
- Inhibition of Aggregation CsgA [2]: ++ ((++) is between 30% to 60% inhibition)

SMILES: Cc1ccc(C(C)C)c(O)c1 [thymol]
- Inhibition of Aggregation αSyn ([1]; ThT fluorescence, cell-free): − − ((− −) is less than −10% inhibition)
- Inhibition of Aggregation CsgA [2]: − ((−) is between −10% to 10% inhibition)
- Inhibition of Aggregation CsgA-seeded αSyn [3]: − ((−) is between −10% to 10% inhibition)
